Active and inactive are the calls of the source. No cut-off for these calls is given here.
Key:
CCRF S-180 [1] = assay: In vivo antitumor activity against mouse S180 cells implanted in mouse assessed as cell growth at 5 ug/mouse for 10 days relative to control; format: functional
CCRF S-180 [2] = assay: In vivo antitumor activity against mouse S180 cells implanted in mouse assessed as cell growth at 10 ug/mouse for 10 days relative to control; format: functional
CCRF S-180 [3] = assay: In vivo antitumor activity against mouse S180 cells implanted in mouse assessed as cell growth at 0.625 ug/mouse for 10 days relative to control; format: functional
CCRF S-180 [4] = assay: In vivo antitumor activity against mouse S180 cells implanted in mouse assessed as cell growth at 2.5 ug/mouse for 10 days relative to control; format: functional
CCRF S-180 [5] = assay: In vivo antitumor activity against mouse S180 cells implanted in mouse assessed as cell growth at 20 ug/mouse for 10 days relative to control; format: functional
CCRF S-180 [6] = assay: In vivo antitumor activity against mouse S180 cells implanted in mouse assessed as cell growth at 1.25 ug/mouse for 10 days relative to control; format: functional
CCRF S-180 [7] = assay: In vivo antitumor activity against mouse S180 cells implanted in mouse after 10 days; format: functional, organism-based
CCRF S-180 [8] = assay: In vivo antitumor activity against mouse S180 cells implanted in mouse assessed as cell growth at 60 ug/mouse for 10 days relative to control; format: functional
L1210 = assay: Cytotoxicity against mouse L1210 cells; format: functional, cell-based
CCRF S-180 [9] = assay: Cytotoxicity against mouse S180 cells; format: functional, cell-based
CCRF S-180 [10] = assay: Antitumor activity against mouse S180 cells implanted in mouse in presence of cyclophosphamide administered 24 hrs prior to implantation; format: functional, cell-based
CCRF S-180 [11] = assay: In vivo antitumor activity against mouse S180 cells implanted in mouse assessed as cell growth at 40 ug/mouse for 10 days relative to control; format: functional
KB = assay: Cytotoxicity against human KB cells; format: functional, cell-based

Compound	T/C (CCRF S-180 [1])	T/C (CCRF S-180 [2])	T/C (CCRF S-180 [3])	T/C (CCRF S-180 [4])	T/C (CCRF S-180 [5])	T/C (CCRF S-180 [6])	IC50 (CCRF S-180 [7])	T/C (CCRF S-180 [8])	Activity (L1210)	Activity (CCRF S-180 [9])	Activity (CCRF S-180 [10])	T/C (CCRF S-180 [11])	Activity (KB)
O=C(O)CC1C(=O)Nc2ccccc21 (stereo not given)	0%	0%	36%	0%	0%	16%	<= 1 ug	–	–	–	–	–	–
O=C1CC(C(=O)O)c2ccccc2N1 (racemic)	0%	0%	62%	0%	0%	30%	<= 1 ug	–	–	–	–	–	–
COc1cc(C2c3cc(O[C@@H]4O[C@H](COC(=O)CC5C(=O)Nc6ccccc65)[C@@H](O)[C@H](O)[C@H]4O)c(O)cc3C3C(=O)O[C@H]4[C@H](O)[C@@H](COC(=O)C32)O[C@@]4(CO)O[C@H]2O[C@H](CO)[C@@H](O)[C@H](O)[C@H]2O)ccc1O (stereo not given in full) [SECALOSDIE A/B]	45%	24%	–	70%	17%	–	5 µg	0%	inactive	inactive	inactive	2%	inactive

— ChEMBL document CHEMBL1145721, “The secalosides, novel tumor cell growth inhibitory glycosides from a pollen extract” (J Nat Prod, 1997)
